Measurements taken from patent US4833138A, “Phenothiazinealkaneamines for treatment of neurotoxic injury” (priority 1987, dated 1989).
Structures can show the parent of a compound that is named as a salt.

Columns and labels:
[1] = system: NMDA receptor (N-Methyl-Aspartate excitation of central mammalian neurones); conditions: Anis et al, Br. J. Pharmacol. 1983; cited from earlier work
NMA neurotoxicity = conditions: Olney et al, Neuroscience Letters 1986 for PCP and ketamine; competitive NMA antagonist statement without reference; cited from earlier work
chick embryo retina [2] = test: Acute excitotoxic lesion of chick embryo retina by agonist alone; conditions: 1 mM Glu, 30 min in BSS
Method: (§1) Two agonists were employed in the present test, each at a concentration established previously to be the lowest concentration required to consistently cause a fully-developed retinal lesion: KA (25 μM) and NMA (200 μM). […] Internal controls in each experiment consisted of at least six specimens being incubated with agonist alone. […] The method of tissue preparation was as follows: 15-day old chick embryos were decapitated and their eyes removed and cut into quadrants after excising the cornea and removing the lens, vitreous and iris. The retinal quadrants were then gently separated from the pigment epithelium and incubated for 30 min. at 37° C. in BSS to which an agonist or agonist plus antagonist was added. The BSS contained 140 mM Na^+, 5.0 mM K^+, 0.5 mM Ca^++, 4 5mM Mg^++, 150 mM Cl^-, 5.6 mM glucose and bicarbonate/phosphate buffer (pH 7.3). After incubation for 30 min., the retinal quadrants were fixed by immersion in phosphatebuffered solution containing 1.5% glutaraldehyde and 1% paraformaldehyde, then additionally fixed in 1% osmium tetroxide, dehydrated in graded ethanols, cleared in toluene and embedded in araldite. Sections were cut 1 μM thick on a Sorval ultratome and stained with Methylene blue/Azure 11 for histopathological evaluation by light microscopy.

chick embryo retina [3] = conditions: chicken, 30 min
Method: as §1

[4] = system: N-Methylaspartate excitation of spinal neurones; conditions: Berry et al, Eur. J. Pharm. 1983; binding and behavioral data; cited from earlier work
[5] = system: [^3 H]PCP binding sites, rat cerebral cortical membranes; conditions: Goldman et al, FEBS Lett. 1985; cited from earlier work
[6] = system: NMA neurotoxicity in chick embryo retina; test: NMDA/KA Antagonist Assay, chick embryo retina, NMA (200 μM) neurotoxicity; type: cell-based; conditions: 15-day old chick embryo retina, 30 min at 37° C., n>6
Method: as §1

[7] = system: KA neurotoxicity in chick embryo retina; test: NMDA/KA Antagonist Assay, chick embryo retina, KA (25 μM) neurotoxicity; type: cell-based; conditions: 15-day old chick embryo retina, 30 min at 37° C.
Method: as §1

[8] = system: N-methyl-D-aspartate receptor; conditions: Wong et al, PNAS 1986; cited from earlier work

c1ccc(C2(N3CCCCC3)CCCCC2)cc1 [PCP]
reduction of excitatory effects of NMDA as compared to KA and QUIS [1]: reduce selectively the excitatory effects of NMDA as compared to KA and QUIS
blocking of NMA neurotoxicity (NMA neurotoxicity): Blocking of NMA neurotoxicity

N[C@@H](CCC(=O)O)C(=O)O [Glu, Glutamate]
retinal lesion (chick embryo retina [2]): full lesion

CN[C@H](CC(=O)O)C(=O)O [NMA, N-methyl-D-aspartate]
lowest concentration required to consistently cause a fully-developed retinal lesion (chick embryo retina [3]): 200 µM

CC1CCCN(C2(c3ccccc3)CCCCC2)C1 (single isomer, unassigned; (+)) [(+)-PCMP, (+)-1-(1-phenylcyclohexyl)-3-methylpiperidine]
stereoselective effect over isomer counterpart in reducing the excitatory action of NMDA [4]: stereoselective effects
inhibition of the specific binding of [^3 H]PCP [5]: potent inhibitor

10-[2-(diethylamino)ethyl]phenothiazine [ethopropazine]
concentration providing total protection against toxicity of NMA [6]: 25.0 µM
blocking of KA toxicity [7]: not observed

C[C@]12N[C@H](Cc3ccccc31)c1ccccc12 [MK-801, (+)-5-methyl-10,11-dihydro-5H-dibenzo[a,d]cyclohepten-5,10-imine maleate)]
antagonism of the N-methyl-D-aspartate receptor site [8]: potent, selective non-competitive antagonist

CC1CCC(c2ccccc2)(N2CCCCC2)CC1 (stereo not drawn) [cis-N-(1-phenyl-4-methylcyclohexyl)piperidine]
stereoselective effect over isomer counterpart in reducing the excitatory action of NMDA [4]: stereoselective effects

CNC1(c2ccccc2Cl)CCCCC1=O (stereo not drawn) [ketamine]
reduction of excitatory effects of NMDA as compared to KA and QUIS [1]: reduce selectively the excitatory effects of NMDA as compared to KA and QUIS
blocking of NMA neurotoxicity (NMA neurotoxicity): Blocking of NMA neurotoxicity
